From ChEMBL document CHEMBL3872245, “A novel curcumin derivative which inhibits P-glycoprotein, arrests cell cycle and induces apoptosis in multidrug resistance cells” (Bioorg Med Chem, 2017)
Active and inactive are the calls of the source. The rule behind the calls is not given here.

Key:
[1] = Chemical stability of the compound in pH 1 HCl buffer at 10^-4 M incubated for 75 mins by HPLC method; type: physicochemical; settings: pH 1, 1.25 h, 100 µM
H460 = assay: Inhibition of P-gp in drug resistant human H460 cells assessed as reduction in cell viability measured after 48 hrs by sulforhodamine B assay; type: cell-based
[2] = Stability of the compound in HEPES medium at 1.5 10^-3 M incubated for 5 to 30 mins under dark condition by HPLC method; type: physicochemical
[3] = Stability of the compound at room temperature at 10^-4 M incubated for 6 to 12 days under dark condition by HPLC method; type: physicochemical; settings: 100 µM
K562 [4] = assay: Inhibition of P-gp in doxorubicin resistant human K562 cells assessed as reduction in cell viability measured after 48 hrs by Presto blue assay; type: cell-based
[5] = Antiproliferative activity against human NCI-H460 cells measured after 48 hrs by sulforhodamine B assay; type: functional; settings: NCI-H460, 48 h
[6] = Chemical stability of the compound in pH 9.1 sodium boric acid buffer at 10^-4 M incubated for overnight by HPLC method; type: physicochemical; settings: pH 9.1, 100 µM
[7] = Stability of the compound at -20 degreeC at 10^-4 M incubated for 6 to 12 days under dark condition by HPLC method; type: physicochemical; settings: 100 µM
[8] = Stability of the compound at 4 degreeC at 10^-4 M incubated for 6 to 12 days under dark condition by HPLC method; type: physicochemical; settings: 100 µM
[9] = Stability of the compound in RPMI medium at 1.5 10^-3 M incubated for 5 to 30 mins under dark condition by HPLC method; type: physicochemical
[10] = Chemical stability of the compound in pH 7.4 phosphate buffered saline at 10^-4 M incubated for overnight by HPLC method; type: physicochemical; settings: buffer, pH 7.4, 100 µM
[11] = Antiproliferative activity against human K562 cells measured after 48 hrs by Presto blue assay; type: functional; settings: K562, 48 h
[12] = Chemical stability of the compound in pH 5 sodium acetate buffer at 10^-4 M incubated for overnight by HPLC method; type: physicochemical; settings: pH 5, 100 µM
[13] = Chemical stability of the compound in pH 6.7 potassium phosphate buffer at 10^-4 M incubated for overnight by HPLC method; type: physicochemical; settings: pH 6.7, 100 µM
K562 [14] = assay: Inhibition of P-gp in doxorubicin resistant human K562 cells assessed as increase in accumulation of rhodamine 123 at 10 uM measured after 1 hr by flow cytometry; type: cell-based
[15] = Down regulation of cyclin B1 expression in doxorubicin resistant human K562 cells at 2.7 to 5.4 uM measured after 48 hrs by Western blot method; type: functional, cell-based
K562 [16] = assay: Induction of apoptosis in doxorubicin resistant human K562 cells at 5.4 uM by Annexin V-FITC/propidium iodide staining based flow cytometry; type: functional
K562 [17] = assay: Induction of apoptosis in doxorubicin resistant human K562 cells assessed as increase in PARP-1 cleavage at 2.7 to 5.4 uM measured after 48 hrs by Western blot method; type: functional, cell-based
[18] = Up regulation of p53 expression in doxorubicin resistant human K562 cells at 2.7 to 5.4 uM measured after 48 hrs by Western blot method; type: functional, cell-based
[19] = Down regulation of p-gp expression in doxorubicin resistant human K562 cells at 2.7 to 4.1 uM measured after 48 hrs by Western blot method; type: functional, cell-based
K562 [20] = assay: Induction of apoptosis in doxorubicin resistant human K562 cells at 4.1 uM by Annexin V-FITC/propidium iodide staining based flow cytometry; type: functional
[21] = Cell cycle arrest in doxorubicin resistant human K562 cells assessed as decrease in G0/G1 phase at 2.7 uM measured after 48 hrs by propidium iodide staining based flow cytometry; type: functional
K562 [22] = assay: Induction of apoptosis in doxorubicin resistant human K562 cells at 2.7 uM by Annexin V-FITC/propidium iodide staining based flow cytometry; type: functional
[23] = Cell cycle arrest in doxorubicin resistant human K562 cells assessed as increase in G2/M phase at 2.7 uM measured after 48 hrs by propidium iodide staining based flow cytometry; type: functional
K562 [24] = assay: Induction of apoptosis in doxorubicin resistant human K562 cells assessed as decrease in pro-caspase 3 level at 2.7 to 5.4 uM measured after 48 hrs by Western blot method; type: functional, cell-based
[25] = Cell cycle arrest in doxorubicin resistant human K562 cells assessed as decrease in S phase at 2.7 uM measured after 48 hrs by propidium iodide staining based flow cytometry; type: functional
[26] = Cell cycle arrest in doxorubicin resistant human K562 cells assessed as accumulation at G2/M phase at 4.1 to 5.4 uM measured after 48 hrs by propidium iodide staining based flow cytometry; type: functional
[27] = Cell cycle arrest in doxorubicin resistant human K562 cells assessed as increase in G2/M phase at 20 uM measured after 48 hrs by propidium iodide staining based flow cytometry; type: functional
K562 [28] = assay: Induction of apoptosis in doxorubicin resistant human K562 cells at 30 uM by Annexin V-FITC/propidium iodide staining based flow cytometry; type: functional
K562 [29] = assay: Induction of apoptosis in doxorubicin resistant human K562 cells decrease in pro-caspase 3 level at 20 to 40 uM measured after 48 hrs by Western blot method; type: functional, cell-based
[30] = Up regulation of p53 expression in doxorubicin resistant human K562 cells at 20 to 40 uM measured after 48 hrs by Western blot method; type: functional, cell-based
[31] = Cell cycle arrest in doxorubicin resistant human K562 cells assessed as decrease in G0/G1 phase at 20 uM measured after 48 hrs by propidium iodide staining based flow cytometry; type: functional
K562 [32] = assay: Induction of apoptosis in doxorubicin resistant human K562 cells at 20 uM by Annexin V-FITC/propidium iodide staining based flow cytometry; type: functional
[33] = Cell cycle arrest in doxorubicin resistant human K562 cells assessed as decrease in S phase at 20 uM measured after 48 hrs by propidium iodide staining based flow cytometry; type: functional
[34] = Down regulation of cyclin B1 expression in doxorubicin resistant human K562 cells at 20 to 40 uM measured after 48 hrs by Western blot method; type: functional, cell-based
[35] = Cell cycle arrest in doxorubicin resistant human K562 cells assessed as accumulation at G0/G1 phase at 30 to 40 uM measured after 48 hrs by propidium iodide staining based flow cytometry; type: functional
[36] = Down regulation of p-gp expression in doxorubicin resistant human K562 cells at 20 to 30 uM measured after 48 hrs by Western blot method; type: functional, cell-based
K562 [37] = assay: Induction of apoptosis in doxorubicin resistant human K562 cells assessed as increase in PARP-1 cleavage at 20 to 40 uM measured after 48 hrs by Western blot method; type: functional, cell-based
K562 [38] = assay: Induction of apoptosis in doxorubicin resistant human K562 cells at 40 uM by Annexin V-FITC/propidium iodide staining based flow cytometry; type: functional
[39] = Cell cycle arrest in doxorubicin resistant human K562 cells assessed as decrease in G2/M phase at 30 to 40 uM measured after 48 hrs by propidium iodide staining based flow cytometry; type: functional
K562 [40] = assay: Inhibition of P-gp in doxorubicin resistant human K562 cells assessed as reduction in cell viability measured after 48 hrs by SRB assay; type: cell-based

Stability [1] | GI50 (H460) | Stability [2] | Stability [3] | GI50 (K562 [4]) | Stability [6] | Stability [7] | Stability [8] | Stability [9] | Stability [10] | Stability [12] | Stability [13] | SMILES | GI50 [5] | GI50 [11] | other results
 | 41 µM |  |  | > 150 µM |  |  |  |  |  |  |  | COc1cc(/C=C/C(C)=O)ccc1OCCCNC(=O)OC(C)(C)C | 55.2 µM | > 150 µM | inhibition (K562 [14]): Active
Stable | 2.6 µM | Stable | Stable | 2.73 µM | Stable | Stable | Stable | Stable | Stable | Stable | Stable | C#CCOc1ccc(/C=C/C(=O)CC(=O)/C=C/c2ccc(OCC#C)c(OC)c2)cc1OC | 3.4 µM | 6.3 µM | Activity [15]: Active; Activity (K562 [16]): 14.8%; Activity (K562 [17]): Active; Activity [18]: Active; Activity [19]: Active; inhibition (K562 [14]): Active; Activity (K562 [20]): 11.3%; Activity [21]: Active; Activity (K562 [22]): 9.3%; Activity [23]: Active; Activity (K562 [24]): Active; Activity [25]: Active; Activity [26]: Active
 | > 150 µM |  |  | > 150 µM |  |  |  |  |  |  |  | COC(=O)COc1ccc(/C=C/C(C)=O)cc1OC | > 150 µM | > 150 µM | 
 | 41.7 µM |  |  | 133 µM |  |  |  |  |  |  |  | C#CCOc1ccc(/C=C/C(C)=O)cc1OC | 52.7 µM | > 150 µM | 
Unstable | 26 µM | Stable | Stable | 19.7 µM | Unstable | Stable | Stable | Stable | Unstable | Unstable | Unstable | COc1cc(/C=C/C(=O)CC(=O)/C=C/c2ccc(O)c(OC)c2)ccc1O [CURCUMIN] | 27.3 µM | 21.7 µM | Activity [27]: Active; Activity (K562 [28]): 26.9%; Activity (K562 [29]): Active; Activity [30]: Active; Activity [31]: Active; Activity (K562 [32]): 11.8%; Activity [33]: Active; Activity [34]: Active; Activity [35]: Active; Activity [36]: Active; Activity (K562 [37]): Active; Activity (K562 [38]): 32%; Activity [39]: Active
Stable | 62.7 µM | Stable | Stable | 92 µM | Stable | Stable | Stable | Stable | Stable | Stable | Stable | COc1cc(/C=C/C(C)=O)ccc1O [DEHYDROZINGERONE] | 64.8 µM | 85.3 µM | 

The next lines start with the compound.

SMILES | Stability [1] | GI50 (H460) | Stability [2] | Stability [3] | GI50 (K562 [4]) | Stability [6] | Stability [7] | Stability [8] | Stability [9] | Stability [10] | Stability [12] | Stability [13] | GI50 [5] | GI50 [11] | other results
COc1cc(/C=C/C(=O)/C=C/c2ccc(O)c(OC)c2)ccc1O | Stable | 1.8 µM | Stable | Unstable | 20.7 µM | Stable | Unstable | Unstable | Stable | Stable | Stable | Stable | 1.47 µM | 9.33 µM | 
COc1ccc(CCN(C)CCCC(C#N)(c2ccc(OC)c(OC)c2)C(C)C)cc1OC (stereo not drawn) |  |  |  |  |  |  |  |  |  |  |  |  |  |  | inhibition (K562 [14]): Active
COc1cc(/C=C/C(C)=O)ccc1OCc1cn(CCO[C@@H]2O[C@H](COC(C)=O)[C@H](OC(C)=O)[C@H](OC(C)=O)[C@H]2NC(C)=O)nn1 |  | > 150 µM |  |  | > 150 µM |  |  |  |  |  |  |  | > 150 µM | > 150 µM | 
COc1cc(/C=C/C(=O)CC(=O)/C=C/c2ccc(OCc3cn(CCO[C@@H]4O[C@H](COC(C)=O)[C@H](OC(C)=O)[C@H](OC(C)=O)[C@H]4NC(C)=O)nn3)c(OC)c2)ccc1OCc1cn(CCO[C@@H]2O[C@H](COC(C)=O)[C@H](OC(C)=O)[C@H](OC(C)=O)[C@H]2NC(C)=O)nn1 |  | > 150 µM |  |  | > 150 µM |  |  |  |  |  |  |  | > 150 µM | > 150 µM | 
COc1cccc2c1C(=O)c1c(O)c3c(c(O)c1C2=O)C[C@@](O)(C(=O)CO)C[C@@H]3O[C@H]1C[C@H](N)[C@H](O)[C@H](C)O1 [DOXORUBICIN] |  | > 0.15 µM |  |  | > 0.15 µM |  |  |  |  |  |  |  | 0.02 µM | 0.065 µM | GI50 (K562 [40]): 11.6 µM
C=CCOc1ccc(/C=C/C(C)=O)cc1OC |  | 39.3 µM |  |  | 63.3 µM |  |  |  |  |  |  |  | 41.5 µM | 68.7 µM | 
